Data as given in patent US4413005A, “Carbamate derivatives and insecticidal, miticidal or nematocidal compositions containing the same” (priority 1981, dated 1983).
Where two headings read alike, the source gives them in different places.

Key:
[1] = test system: green rice leafhopper (Nephotettix cincticeps); experiment: Mortality of female adults of green rice leafhopper on paddy rice (Test Example 2); assay type: in vivo; details: 72 h
Experimental: An emulsion of specified concentration was prepared from a 50% wettable powder of the compound to be tested and applied to the leaves of paddy rice (one-month-old seedlings) planted in a pot to fully wet the leaves. After the emulsion had been dried, the pot was covered with a net cage, into which 10 female adults of green rice leafhopper (Nephotettix cincticeps) were released. The compound of each specified concentration was tested on two pots.

[2] = test system: tobacco cutworm (Spodoptera litura); experiment: Mortality of third-instar larvae of tobacco cutworm on cabbage (Test Example 1); assay type: in vivo
Experimental: Ten third-instar larvae of tobacco cutworm (Spodoptera litura) were placed on a cabbage (one-month-old seedling) planted in a pot, and a 50% emulsion of the compound to be tested was diluted to a specified concentration and applied to the leaves of the plant to fully wet them. The test compound of each specified concentration was tested on two pots.

[3] = test system: house fly (Musca domestica); experiment: Local application to house fly, LD50 by Probit method (Test Example 4); assay type: in vivo; details: topical, 24 h
Experimental: The compound to be tested was dissolved in a predetermined amount of acetone. The solution was diluted to various concentrations and locally applied to house fly (Musca domestica).

[4] = Acute oral toxicity in male mice, LD50 by Litchfield-Wilcoxon method (Test Example 5); details: mouse, in vivo, mortality on the seventh day
Experimental: Compounds of this invention were tested on male mice for acute toxicity by oral administration.

SMILES	mortality at 200 ppm [1] [%]	mortality at 400 ppm [1] [%]	mortality at 800 ppm [1] [%]	mortality at 500 ppm ([2]; 72 h) [%]	mortality at 1000 ppm ([2]; 72 h) [%]	mortality at 2000 ppm ([2]; 72 h) [%]	LD50 [3] [mg/kg]	LD50 at 168 h [4] [mg/kg]	mortality at 200 ppm ([1]; 200 ppm active ingredient, from 50% wettable powder, three days later, read-out: Mortality) [%]	mortality at 400 ppm ([1]; 400 ppm active ingredient, from 50% wettable powder, three days later, read-out: Mortality) [%]	mortality at 800 ppm ([1]; 800 ppm active ingredient, from 50% wettable powder, three days later, read-out: Mortality) [%]	mortality at 500 ppm ([2]; 72 h, 500 ppm active ingredient, 50% emulsion diluted, three days later, read-out: Mortality) [%]	mortality at 1000 ppm ([2]; 72 h, 1,000 ppm active ingredient, 50% emulsion diluted, three days later, read-out: Mortality) [%]	mortality at 2000 ppm ([2]; 72 h, 2,000 ppm active ingredient, 50% emulsion diluted, three days later, read-out: Mortality) [%]
CC(C)N(CCC#N)SN(C)C(=O)Oc1cccc2c1OC(C)(C)C2 [Example 38]	70	90	100	75	90	100	17.5	125	–	–	–	–	–	–
CCCCN(CC#N)SN(C)C(=O)Oc1cccc2c1OC(C)(C)C2 [Example 33, 2,3-dihydro-2,2-dimethylbenzofuran-7-yl N-(N-butyl-N-cyanomethylaminosulfenyl)-N-methyl-carbamate]	70	90	100	75	90	100	9.1	103	–	–	–	–	–	–
CCCCOC(=O)CCN(SN(C)C(=O)Oc1cccc2c1OC(C)(C)C2)C(C)C [Example 25]	65	90	100	75	90	100	50.1	123	–	–	–	–	–	–
CCCCN(CCC#N)SN(C)C(=O)Oc1cccc2c1OC(C)(C)C2 [Example 39, 2,3-Dihydro-2,2-dimethylbenzofuran-7-yl N-(N-n-butyl-N-cyanoethylaminosulfenyl)-N-methyl-carbamate]	70	90	100	75	90	100	13.7	110	–	–	–	–	–	–
CCOC(=O)CN(C)SN(C)C(=O)Oc1cccc2c1OC(C)(C)C2 [Example 14, 2,3-Dihydro-2,2-dimethylbenzofuran-7-yl N-(N-methyl-N-ethoxycarbonylmethylaminosulfenyl)-N-methylcarbamate]	65	90	100	75	90	100	9.9	120	–	–	–	–	–	–
CCOC(=O)CCN(CC(=O)OCC)SN(C)C(=O)Oc1cccc2c1OC(C)(C)C2 [Example 9]	60	90	100	80	90	100	31.7	158	–	–	–	–	–	–
CCOC(=O)CN(SN(C)C(=O)Oc1cccc2c1OC(C)(C)C2)C1CCCCC1 [Example 18]	65	90	100	75	90	100	32.5	135	–	–	–	–	–	–
COC(=O)CCN(SN(C)C(=O)Oc1cccc2c1OC(C)(C)C2)C(C)C [Example 24]	60	90	100	75	85	100	38.6	77	–	–	–	–	–	–
CCOC(=O)CCN(SN(C)C(=O)Oc1cccc2c1OC(C)(C)C2)C(C)C [Example 23, 2,3-Dihydro-2,2-dimethylbenzofuran-7-yl N-(N-isopropyl-N-ethoxycarbonylethylaminosulfenyl)-N-methylcarbamate]	–	–	–	–	–	–	44.3	113	55	85	100	70	85	100
CCOC(=O)CN(Cc1ccc(Cl)cc1)SN(C)C(=O)Oc1cccc2c1OC(C)(C)C2 [Example 20]	60	80	100	65	85	100	61.9	75	–	–	–	–	–	–
CCCCCCCCN(CC(=O)OCC)SN(C)C(=O)Oc1cccc2c1OC(C)(C)C2 [Example 17]	55	75	95	60	80	100	42.3	69	–	–	–	–	–	–
CCOC(=O)CN(SN(C)C(=O)Oc1cccc2c1OC(C)(C)C2)C(=O)OC [Example 49]	70	90	100	75	90	100	15.7	105	–	–	–	–	–	–
